# pEC50, pIC50: −log10 of the molar value. Like-named read-outs stand apart in the source and are kept apart here.
# How the values were obtained:
# [1] = system: L. donovani MHOM/ET/67/L82 (synonym HU3); test: Acute mouse infection model (VL); format: in vivo, BALB/c mice; conditions: 12.5 mg/kg bid or higher, 5-day dosing
# Experimental: (§1) Female 8−10-week-old BALB/c mice were infected with 2 x 10^7 L. donovani MHOM/ET/67/L82 (synonym HU3) or L. infantum MHOM/MA67/ITMAP263 amastigotes on day 0 and dispatched in groups of five individuals. […] Five days following end of treatment, all mice were sacrificed, and parasite burden was determined from smears of liver sections. Efficacy was expressed as the mean percentage load reduction compared to untreated (vehicle-only) control animals. Reference drugs miltefosine and/or AmBisome were used as positive controls and comparators.
# [2] = system: L. infantum MHOM/MA67/ITMAP263; test: Acute mouse infection model (VL); format: in vivo, BALB/c mice; conditions: for decrease in the liver parasite burden compared to control animals: 5 consecutive days
# Experimental: as §1
# [3] = system: T. b. rhodesiense (bloodstream form); test: In vitro activity against other kinetoplastid parasites; format: cell-based; conditions: Trypanosoma brucei, one range given for T. brucei brucei and T. b. rhodesiense
# CYP2C8 = molecular target: T1, CYP2C8 (Homo sapiens, UniProt P10632); test: Cytochrome P450 inhibition, human liver microsomes; format: in vitro ADME
# T1 construct: incubation of isoform-specific substrates with human liver microsomes; from tissue; host or cells: human liver microsomes
# T1 sequence (P10632 1-490): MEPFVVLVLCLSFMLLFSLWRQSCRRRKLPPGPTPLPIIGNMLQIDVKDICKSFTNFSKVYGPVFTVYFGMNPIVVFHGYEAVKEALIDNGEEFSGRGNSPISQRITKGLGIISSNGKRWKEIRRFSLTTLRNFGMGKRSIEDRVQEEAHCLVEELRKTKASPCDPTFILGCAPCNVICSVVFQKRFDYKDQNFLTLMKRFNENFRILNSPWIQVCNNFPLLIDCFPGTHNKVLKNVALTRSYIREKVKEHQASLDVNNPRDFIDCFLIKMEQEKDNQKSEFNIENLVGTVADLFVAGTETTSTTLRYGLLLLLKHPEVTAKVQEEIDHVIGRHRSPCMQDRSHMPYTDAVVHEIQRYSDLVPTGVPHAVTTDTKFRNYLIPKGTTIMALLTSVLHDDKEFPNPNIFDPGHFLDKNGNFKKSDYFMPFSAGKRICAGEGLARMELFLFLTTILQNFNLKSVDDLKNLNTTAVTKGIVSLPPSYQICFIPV
# Experimental: (§2) Direct CYP inhibition studies were conducted using conditions described previously ([43]) following incubation of isoform-specific substrates with human liver microsomes. The formation of known metabolites mediated by a specific CYP isoform was monitored. CYP isoform-specific pathways (and positive control inhibitors) included CYP1A2: phenacetin O-deethylation (furafylline), CYP2B6: bupropion hydroxylation (PPP), CYP2C8: amodiaquine deethylation (quercetin) CYP2C9: tolbutamide methylhydroxylation (sulfaphenazole), CYP2C19: (S)-mephenytoin 4’-hydroxylation (ticlopidine), CYP2D6: dextromethorphan O-demethylation (quinidine), and CYP3A: midazolam 1’-hydroxylation and testosterone 6β-hydroxylation (ketoconazole). […] The organic solvent content was maintained at less than 1% (v/v). NADPH was added to initiate the reaction which was then quenched by the addition of acetonitrile containing internal standard at specified times. Concentrations of the isoform-specific metabolites were quantified by LC-MS (Waters Xevo TQD triple quadrupole MS coupled to a Waters Acquity UPLC system) relative to calibration standards prepared in pre-quenched microsomal matrix.
# (§3) Time dependent inhibition was assessed using an “IC50 shift” method based on a previous publication ([44]). […] A shift in the IC50 in the presence of NADPH (relative to the absence) was used as an indication of time dependent inhibition. Reference direct and time-dependent inhibitors were included in the assays.
# CYP2D6 = molecular target: T2, CYP2D6 (Homo sapiens, UniProt P10635); test: Cytochrome P450 inhibition, human liver microsomes; format: in vitro ADME
# T2 construct: incubation of isoform-specific substrates with human liver microsomes; from tissue; host or cells: human liver microsomes
# T2 sequence (P10635 whole entry, canonical isoform): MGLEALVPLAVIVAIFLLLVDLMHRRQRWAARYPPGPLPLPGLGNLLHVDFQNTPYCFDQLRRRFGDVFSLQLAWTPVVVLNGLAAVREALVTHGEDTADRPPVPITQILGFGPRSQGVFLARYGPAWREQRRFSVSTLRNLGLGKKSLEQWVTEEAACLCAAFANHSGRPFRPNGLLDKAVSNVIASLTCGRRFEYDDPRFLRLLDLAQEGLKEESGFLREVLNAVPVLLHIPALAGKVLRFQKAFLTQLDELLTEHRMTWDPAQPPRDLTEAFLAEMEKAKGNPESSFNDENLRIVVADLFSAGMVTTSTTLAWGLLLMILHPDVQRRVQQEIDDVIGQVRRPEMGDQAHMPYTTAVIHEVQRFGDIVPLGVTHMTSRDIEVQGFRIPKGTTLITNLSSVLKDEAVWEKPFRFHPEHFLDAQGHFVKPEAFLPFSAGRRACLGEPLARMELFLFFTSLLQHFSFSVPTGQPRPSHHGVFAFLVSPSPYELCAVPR
# Experimental: as §2, §3
# CYP3A4/5 = test: Cytochrome P450 inhibition, human liver microsomes; format: in vitro ADME; conditions: for pIC50: read-out: Direct inhibition IC50; for IC50 at 30 min: read-out: Time-dependent inhibition IC50
# Experimental: as §2, §3
# CYP2B6 = molecular target: T3, CYP2B6 (Homo sapiens, UniProt P20813); test: Cytochrome P450 inhibition, human liver microsomes; format: in vitro ADME
# T3 construct: incubation of isoform-specific substrates with human liver microsomes; from tissue; host or cells: human liver microsomes
# T3 sequence (P20813 1-491): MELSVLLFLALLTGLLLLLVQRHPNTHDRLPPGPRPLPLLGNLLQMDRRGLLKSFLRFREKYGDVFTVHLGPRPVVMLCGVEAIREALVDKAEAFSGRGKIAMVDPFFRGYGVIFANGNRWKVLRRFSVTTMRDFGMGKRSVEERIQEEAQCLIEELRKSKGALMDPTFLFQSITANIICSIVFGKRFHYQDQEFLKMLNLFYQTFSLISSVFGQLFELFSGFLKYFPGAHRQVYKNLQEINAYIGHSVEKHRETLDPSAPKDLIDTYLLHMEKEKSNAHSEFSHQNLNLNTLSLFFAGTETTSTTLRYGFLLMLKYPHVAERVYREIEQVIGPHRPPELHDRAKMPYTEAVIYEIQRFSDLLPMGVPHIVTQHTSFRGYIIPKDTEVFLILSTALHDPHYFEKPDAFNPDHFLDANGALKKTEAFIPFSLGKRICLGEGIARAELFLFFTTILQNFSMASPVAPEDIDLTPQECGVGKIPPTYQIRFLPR
# Experimental: as §2, §3
# [4] = system: Ca2+ channel, (L,dihydropyridine site); test: In vitro pharmacology panel (Eurofins); format: binding, rat; conditions: 10 µM
# From the text: (§4) Listed values represent the percent change relative to the DMSO control activity. When an IC50 had to be determined, eight different concentrations were included. All values are the mean of assay readout duplicates.
# KV channel = test: In vitro pharmacology panel (Eurofins); format: binding, rat; conditions: 10 µM
# From the text: as §4
# Na+ channel (site 2) = test: In vitro pharmacology panel (Eurofins); format: binding, rat; conditions: 10 µM
# From the text: as §4
# BZD (central) = test: In vitro pharmacology panel (Eurofins); format: binding, rat; conditions: 10 µM
# From the text: as §4
# NMDA receptor = test: In vitro pharmacology panel (Eurofins); format: binding, rat; conditions: 10 µM
# From the text: as §4
# [5] = In vitro cytotoxicity assay; format: cell-based; conditions: mouse, primary mouse macrophages (PMM)
# [6] = with NADPH preincubation, read-out: Time-dependent inhibition IC50
# [7] = without NADPH preincubation, read-out: Time-dependent inhibition IC50
smiles,measurement,setting,value
Cc1[nH]c2nc(N)nc(C)c2c1-c1ccc(C#N)c2c1OCO2 [DNDI-6174],reduction in liver parasite burden,[1],> 95%
same,reduction in liver parasite burden,"[2]; 12.5 mg/kg bid or higher, 5-day dosing",> 95%
same,decrease in the liver parasite burden compared to control animals,[2]; 12.5 mg/kg bid,> 98%
same,decrease in the liver parasite burden compared to control animals,[2]; 25 mg/kg qd,> 98%
same,pEC50,[3],4.70 to 5.30
same,pIC50,"CYP2C8; CYP2C8, read-out: Direct inhibition IC50",< 4.70
same,pIC50,CYP2C8; [6],5.49
same,pIC50,CYP2C8; [7],< 4.70
same,pIC50,"CYP2D6; CYP2D6, read-out: Direct inhibition IC50",4.72
same,pIC50,CYP2D6; [6],6.31
same,pIC50,CYP2D6; [7],5.01
same,pIC50,"CYP3A4/5; probe midazolam (1'-hydroxylation), CYP3A4/5, midazolam",< 4.70
same,IC50 at 30 min,"CYP3A4/5; probe midazolam (1'-hydroxylation), midazolam, with NADPH preincubation",1.9 µM
same,IC50 at 30 min,"CYP3A4/5; probe midazolam (1'-hydroxylation), midazolam, without NADPH preincubation",> 20 µM
same,pIC50,"CYP3A4/5; probe testosterone (6β-hydroxylation), CYP3A4/5, testosterone",4.91
same,IC50 at 30 min,"CYP3A4/5; probe testosterone (6β-hydroxylation), testosterone, with NADPH preincubation",0.71 µM
same,IC50 at 30 min,"CYP3A4/5; probe testosterone (6β-hydroxylation), testosterone, without NADPH preincubation",8 µM
same,pIC50,"CYP2B6; CYP2B6, read-out: Direct inhibition IC50",< 4.70
same,pIC50,CYP2B6; [6],< 4.70
same,pIC50,CYP2B6; [7],< 4.70
same,activity (% of DMSO control),[4],89.6%
same,activity (% of DMSO control),KV channel,98.7%
same,activity (% of DMSO control),Na+ channel (site 2),73.9%
same,activity (% of DMSO control),BZD (central),90.2%
same,activity (% of DMSO control),NMDA receptor,89.6%
same,CC50,[5],> 64 µM

# Reference: paper PMC7615677 (Science translational medicine, 2023)
